This is an account of results in patent publication US12583818B2 (DAEGU-GYEONGBUK MEDICAL INNOVATION FOUNDATION, priority 2020, dated 2026).

Like-named read-outs stand apart in the source and are kept apart here.

For experiment [1], the system named is A2780 cells (ovarian cancer cells). Nature of the experiment: Cell viability of A2780 cells (Cell-titer Glo). The class given is cell-based. As to conditions: Homo sapiens. The method in brief:
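A2780 ovarian cancer cells seeded at 3000 viable cells/well in RPMI-1640 with 10% FBS, dosed the next day and grown 3 days. Viability measured by Cell-titer Glo luminescence.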

Experiment [2] relates to A2780-SP cells (ovarian cancer stem cells). Nature of the experiment: Sphere cell viability of A2780-SP cells (Cell-titer Glo). In kind it is cell-based. The method in brief:
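A2780-SP ovarian cancer stem cells grown as spheres in ultra-low-attachment wells (1,500 cells/well) in neurobasal stem-cell medium with bFGF, EGF, B27. Compound added the day after plating, re-dosed on day 4, 8-day culture total; viability by CellTiter-Glo luminescence.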

Experiment [3] deals with MDA-MB 231 triple negative breast cancer cell line. Nature of the experiment: MDA-MB 231 protein expression inhibition (Western blotting, cycline D1 vs Vinculin). The class given is cell-based. The settings on record: Homo sapiens, compound 10 μM, 72 hours, cycline D1 Western blot, read-out: MBA-MB-231 (amount of the protein compared to the DMSO-treated control group). On the procedure: In order to confirm the ability of the compound represented by formula 1 according to the present invention to inhibit the protein expression of MDA-MB 231 triple negative breast cancer cell line, the following experiment was performed, and the results are shown in Table 3 below.
MDA-MB-231 cells were cultured in a 5% CO2 incubator at 37° C. using RPMI medium supplemented with 10% FBS and 1% penicillin/streptomycin.
The cells were washed with PBS once a day, and then replaced with a new medium. The cells grown at the density of at least 90% 1 day before the experiment were detached using trypsin/EDTA, and then plated at the density of 100,000 per well in a 6-well plate.
On the next day of culture, the compound prepared in each example was treated at a concentration of 10 μM, and DMSO was treated at a concentration of 0.1% of the total as the control, followed by incubation for 72 hours. After 72 hours, the cells were washed twice with PBS, collected by scraping, and centrifuged at 13,000 rpm for 3 minutes to remove all the supernatant and only cells were taken.
RIPA buffer (containing 1× protease inhibitor and phosphatase inhibitor) was added to the prepared cells (80 μl/well), and the plate was shaken once every 5 minutes to disrupt the cells for a total of 15 minutes. The disrupted cells were centrifuged at 13,000 rpm for 15 minutes to collect only the supernatant protein. The obtained protein was quantified using a BCA protein quantification kit (Pierece, MA, USA), and a total of 10 μg of the protein was used for Western blotting.
The protein sample was isolated by 10% SDS-PAGE, and transferred to a PVDF membrane. Anti-human cycline D1 antibody (Cell signal) and anti-Vinculin antibody were bound to the protein sample, and the expression of the protein was measured by using an ECL reagent and LAS4000 equipment. The measurement results were quantified and generalized using ImageJ. The results are shown in Table 3 below by dividing the grades A to D according to the amount of the protein compared to the DMSO-treated control group.
For orientation: Immunoblotting shows a protein as a band on a membrane.

The next experiment concerns the target T1, Pin1 (Homo sapiens, UniProt Q13526).
T1 construct: purchased Anaspec
Nature of the experiment: Evaluation of Pin1 enzyme inhibitory activity (Sensolyte Green Pin1 assay kit). In kind it is biochemical. The gist of the method: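 Compounds were tested at four working concentrations (100, 10, 1, 0.1 μM), mixed with Pin1 (50 μg/ml stock dilution), developer and substrate (1 μM as prepared). Fluorescence at 490/520 nm was recorded after 2 h in the dark at room temperature. Results were grouped into grades A–D by inhibiting concentration.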

Setting [4] is: 72 h, cell viability, culture for 3 days, read-out: A2780.
The mark [5] stands for this setting: A2780, Table 5, read-out: A2780 cell concentration.
The mark [6] stands for this setting: 192 h, sphere cell viability, culture for 8 days, read-out: A2780-SP.
Where [7] appears, read: Table 5, read-out: the concentration (second list of b710, cell line not named; matches A2780-SP column).
The mark [8] stands for this setting: Table 2, read-out: concentration at which Pin1 inhibitory activity was exhibited.
The mark [9] stands for this setting: concentration at which the Pin1 enzyme activity is inhibited, 2 hours at room temperature, fluorescence 490 nm/520 nm, read-out: Pin 1 inhibition.

T1 sequence (Q13526 whole entry): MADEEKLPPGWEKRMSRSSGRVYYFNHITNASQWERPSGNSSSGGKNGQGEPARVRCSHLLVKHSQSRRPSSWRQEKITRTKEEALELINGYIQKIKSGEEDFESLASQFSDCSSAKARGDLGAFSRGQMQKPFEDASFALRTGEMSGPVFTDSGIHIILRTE

For `CN1CCN(CCCOc2ccc(S(=O)(=O)NCCCc3c[nH]c4ccc(F)cc34)cc2)CC1` [Example 56, N-(3-(5-fluoro-1H-indol-3-yl)propyl)-4-(3-(4-methylpiperazin-1-yl)propoxy)benzenesulfonamide], the IC50 is 1000 to 10000 nM in experiment [1] (setting [4]); below 10000 nM in experiment [1] (setting [5]); below 1000 nM in experiment [2] (setting [6]); below 1000 nM in experiment [2] (setting [7]); below 1000 nM on Pin1 (setting [8]); below 1000 nM at Pin1 (setting [9]). Moreover, the activity at 10 µM in experiment [3] is 35 to 50%.

Consider `CN1CCC(CCCOc2ccc(S(=O)(=O)NCCCc3c[nH]c4ccc(F)cc34)cc2)CC1` [Example 59, N-(3-(5-fluoro-1H-indol-3-yl)propyl)-4-(3-(1-methylpiperidin-4-yl)propoxy)benzenesulfonamide], for which the IC50 was 1000 to 10000 nM in experiment [1] (setting [4]); below 10000 nM in experiment [1] (setting [5]); below 1000 nM in experiment [2] (setting [6]); below 1000 nM in experiment [2] (setting [7]); 1000 to 10000 nM at Pin1 (setting [9]). The activity at 10 µM in experiment [3] is 35 to 50%.

`O=S(=O)(NCCCc1c[nH]c2ccc(F)cc12)c1ccc(OCCCN2CCNCC2)cc1` [Example 61, N-(3-(5-fluoro-1H-indol-3-yl)propyl)-4-(3-(piperazin-1-yl)propoxy)benzenesulfonamide]: the IC50 in experiment [1] (setting [4]) was 1000 to 10000 nM; in experiment [1] (setting [5]) it was below 10000 nM; in experiment [2] (setting [6]) it was below 1000 nM; in experiment [2] (setting [7]) it was below 1000 nM; on Pin1 (setting [8]) it was below 1000 nM; at Pin1 (setting [9]) it was below 1000 nM. Besides, the activity at 10 µM in experiment [3] lay in the range of 0 to 35%.

As for `CN1CCN(CCCOc2ccc(S(=O)(=O)NCCCc3c[nH]c4ccc(Cl)cc34)cc2)CC1` [Example 66, N-(3-(5-chloro-1H-indol-3-yl)propyl)-4-(3-(4-methylpiperazin-1-yl)propoxy)benzenesulfonamide], the IC50 in experiment [1] (setting [4]) is 1000 to 10000 nM; in experiment [1] (setting [5]), below 10000 nM; in experiment [2] (setting [6]) it was below 1000 nM; in experiment [2] (setting [7]), below 1000 nM; at Pin1 (setting [8]), below 1000 nM; at Pin1 (setting [9]), below 1000 nM. The activity at 10 µM in experiment [3] lay in the range of 0 to 35%.

For the compound `CNC1CN(CCCOc2ccc(S(=O)(=O)NCCCc3c[nH]c4ccc(Cl)cc34)cc2)C1` [Example 77, N-(3-(5-chloro-1H-indole-3-yl)propyl)-4-(3-(3-(methylamino)azetidine-1-yl)propoxy)benzenesulfonamide], the IC50 was above 10000 nM in experiment [1] (setting [4]), 1000 to 10000 nM in experiment [2] (setting [6]), below 1000 nM at Pin1 (setting [8]) and below 1000 nM at Pin1 (setting [9]). Moreover, in experiment [3], the activity at 10 µM lay within 0 to 35%.

As for `CN1CCN(CCCOc2ccc(S(=O)(=O)NCCCc3c[nH]c4ccc(Cl)cc34)c3ccccc23)CC1` [Example 86, N-(3-(5-chloro-1H-indole-3-yl)propyl)-4-(3-(4-methylpiperazine-1-yl)propoxy)naphthalene-1-sulfonamide], in experiment [3], the activity at 10 µM was in the range of 70 to 100%. Further, the IC50 at Pin1 (setting [8]) and at Pin1 (setting [9]) was below 1000 nM in each case.

On to `O=S(=O)(NCCCc1c[nH]c2ccc(Cl)cc12)c1ccc(NCCCC2CCNCC2)cc1` [Example 88, N-(3-(5-chloro-1H-indole-3-yl)propyl)-4-((3-(piperidine-4-yl)propyl)amino)benzenesulfonamide], for which the IC50 in experiment [1] (setting [4]) is above 10000 nM; in experiment [2] (setting [6]), below 1000 nM; in experiment [2] (setting [7]), below 1000 nM; at Pin1 (setting [8]), below 1000 nM; on Pin1 (setting [9]), below 1000 nM. Also, the activity at 10 µM in experiment [3] lay within 50 to 70%.

As for `O=S(=O)(NCCCc1c[nH]c2ccc(Cl)cc12)c1ccc(CCCCN2CCCCC2)cc1` [Example 90, N-(3-(5-chloro-1H-indole-3-yl)propyl)-4-(4-(piperidine-1-yl)butyl)benzenesulfonamide], the IC50 is above 10000 nM in experiment [1] (setting [4]); below 1000 nM in experiment [2] (setting [6]); below 1000 nM in experiment [2] (setting [7]); below 1000 nM on Pin1 (setting [8]); below 1000 nM at Pin1 (setting [9]). Moreover, the activity at 10 µM in experiment [3] is 35 to 50%.

Turning to `CN1CCC(CCCOc2ccc(S(=O)(=O)NCCCc3c[nH]c4ccc(Cl)cc34)cc2)CC1` [Example 92, N-(3-(5-chloro-1H-indole-3-yl)propyl)-4-(3-(1-methylpiperidine-4-yl)propoxy)benzenesulfonamide], the IC50 in experiment [1] (setting [4]) is above 10000 nM; in experiment [2] (setting [6]), below 1000 nM; in experiment [2] (setting [7]) it was below 1000 nM; at Pin1 (setting [8]), below 1000 nM; on Pin1 (setting [9]) it was below 1000 nM. Further, the activity at 10 µM in experiment [3] is 0 to 35%.

For the compound `O=S(=O)(NCCCc1c[nH]c2ccc(Cl)cc12)c1ccc(OCCCC2CCNCC2)cc1` [Example 93, N-(3-(5-chloro-1H-indole-3-yl)propyl)-4-(3-(piperidine-4-yl)propoxy)benzenesulfonamide], the IC50 in experiment [1] (setting [4]) was 1000 to 10000 nM; in experiment [1] (setting [5]), below 10000 nM; in experiment [2] (setting [6]), below 1000 nM; in experiment [2] (setting [7]), below 1000 nM; on Pin1 (setting [8]) it was below 1000 nM; on Pin1 (setting [9]), below 1000 nM. Besides, in experiment [3], the activity at 10 µM lay in the range of 0 to 35%.

On to `CN1CCN(CCCOc2ccc(S(=O)(=O)NCCCc3c[nH]c4ccc(Cl)cc34)cc2F)CC1` [Example 103, N-(3-(5-chloro-1H-indole-3-yl)propyl)-3-fluoro-4-(3-(4-methylpiperazine-1-yl)propoxy)benzenesulfonamide], for which the IC50 in experiment [1] (setting [4]) was above 10000 nM; in experiment [2] (setting [6]), below 1000 nM; in experiment [2] (setting [7]) it was below 1000 nM; at Pin1 (setting [8]) it was below 1000 nM; at Pin1 (setting [9]), below 1000 nM. Also, in experiment [3], the activity at 10 µM lay within 35 to 50%.

For `O=S(=O)(NCCCc1c[nH]c2ccc(Cl)cc12)c1ccc(OCCCN2CCNCC2)c(F)c1` [Example 104, N-(3-(5-chloro-1H-indol-3-yl)propyl)-3-fluoro-4-(3-(piperazin-1-yl)propoxy)benzenesulfonamide], the IC50 in experiment [1] (setting [4]) was above 10000 nM; in experiment [2] (setting [6]), below 1000 nM; in experiment [2] (setting [7]), below 1000 nM; at Pin1 (setting [8]), below 1000 nM; on Pin1 (setting [9]), below 1000 nM. In experiment [3], the activity at 10 µM fell in the range of 70 to 100%.

In the case of `O=S(=O)(NCCCc1c[nH]c2ccc(Cl)cc12)c1ccc(OCCCN2CCC(O)CC2)c(F)c1` [Example 105, N-(3-(5-chloro-1H-indol-3-yl)propyl)-3-fluoro-4-(3-(4-hydroxypiperidin-1-yl)propoxy)benzenesulfonamide], the IC50 is above 10000 nM in experiment [1] (setting [4]); below 1000 nM in experiment [2] (setting [6]); below 1000 nM in experiment [2] (setting [7]); below 1000 nM at Pin1 (setting [8]); below 1000 nM at Pin1 (setting [9]). For the same compound, the activity at 10 µM in experiment [3] lay in the range of 70 to 100%.

As for `O=S(=O)(NCCCc1c[nH]c2ccc(Cl)cc12)c1ccc(OCCCN2CCCNCC2)c(F)c1` [Example 106, 4-(3-(1,4-diazepan-1-yl)propoxy)-N-(3-(5-chloro-1H-indol-3-yl)propyl)-3-fluorobenzenesulfonamide], the IC50 was 1000 to 10000 nM in experiment [1] (setting [4]); below 10000 nM in experiment [1] (setting [5]); below 1000 nM in experiment [2] (setting [6]); below 1000 nM in experiment [2] (setting [7]); below 1000 nM at Pin1 (setting [8]); below 1000 nM at Pin1 (setting [9]). Besides, in experiment [3], the activity at 10 µM lay in the range of 50 to 70%.

Take `O=S(=O)(NCCCc1c[nH]c2ccc(Cl)cc12)c1ccc(Oc2cccc(N3CCNCC3)c2)cc1` [Example 121, N-(3-(5-chloro-1H-indol-3-yl)propyl)-4-(3-(piperazin-1-yl)phenoxy)benzenesulfonamide]: the IC50 was 1000 to 10000 nM in experiment [1] (setting [4]); below 10000 nM in experiment [1] (setting [5]); below 1000 nM in experiment [2] (setting [6]); below 1000 nM in experiment [2] (setting [7]); below 1000 nM at Pin1 (setting [8]); below 1000 nM at Pin1 (setting [9]). In addition, in experiment [3], the activity at 10 µM is 0 to 35%.
